Where two headings read alike, the source gives them in different places. Marks after values point to notes of the source that are not given here.
Assay: logP by HPLC on reversed-phase columns (C 18), EEC directive 79/831 Annex V.A8
Type: physicochemical
Conditions: for chromatographic logP: reversed-phase HPLC column (C 18)
Experimental: Calibration was carried out using unbranched alkan-2-ones (having from 3 to 16 carbon atoms) with known logP values (the logP values were determined by the retention times using linear interpolation between two successive alkanones).

[1] = LC-MS, neutral range, pH 7.8, 0.001 molar aqueous ammonium bicarbonate and acetonitrile
[2] = acidic range, pH 2.3, 0.1% aqueous phosphoric acid and acetonitrile
[3] = LC-MS, acidic range, pH 2.7, 0.1% aqueous formic acid and acetonitrile
[4] = LC-MS, neutral range, pH 7.8, 0.001 molar aqueous ammonium bicarbonate and acetonitrile, read-out: log P (***)
[5] = acidic range, pH 2.3, 0.1% aqueous phosphoric acid and acetonitrile, read-out: log P (*)

log P (***) [1]	log P (*) [2]	log P (**) [3]	SMILES	other results
4.51	2.17	–	Cc1ccc(Oc2ccccc2-c2csc(N=C3CCCCN3)n2)cc1 [compound 79, 4-[2-(4-methylphenoxy)phenyl]-N-[(2E/Z)-piperidin-2-ylidene]-1,3-thiazole-2-amine]	–
3.47	1.68	1.68	Clc1ccc(-c2csc(N=C3CCCCN3)n2)cc1 [compound 103, 4-(4-chlorophenyl)-N-[(2E/Z)-piperidin-2-ylidene]-1,3-thiazole-2-amine]	–
3.45	1.76	1.76	Fc1ccc(-c2csc(N=C3CCCCN3)n2)cc1Cl [compound 30, 4-(3-chloro-4-fluorophenyl)-N-[(2E/Z)-piperidin-2-ylidene]-1,3-thiazole-2-amine]	–
–	1.23*	–	Fc1ccc(-c2csc(N=C3CCCCN3)n2)cc1 [compound 54, 4-(4-fluorophenyl)-N-[(2E/Z)-piperidin-2-ylidene]-1,3-thiazole-2-amine]	–
4.43	2.49	2.49	Clc1ccc(Oc2ccccc2-c2csc(N=C3CCCN3)n2)c(Cl)c1 [compound 99, 4-[2-(2,4-dichlorophenoxy)phenyl]-N-[(2E/Z)-pyrrolidin-2-ylidene]-1,3-thiazole-2-amine]	–
–	1.32*	–	Cc1cccc(-c2csc(N=C3CCCCN3)n2)c1 [compound 60, 4-(3-methylphenyl)-N-[(2E/Z)-piperidin-2-ylidene]-1,3-thiazole-2-amine]	–
4.32	4.36	4.36	CC(=O)N1CCCCC1=Nc1nc(-c2ccccc2Oc2ccc(F)cc2F)cs1 [compound 16, 1-[(2E/Z)-2-({4-[2-(2,4-difluorophenoxy)phenyl]-1,3-thiazol-2-yl}imino)piperidin-1-yl]ethanone]	–
3.37**; 3.37***; 3.37*	3.37**; 3.37***; 3.37*	3.37**; 3.37***; 3.37*	CC(=O)N1CCCCC1=Nc1nc(-c2cccc(F)c2F)c(C)s1 [compound 43, 1-[(2E/Z)-2-{[4-(2,3-difluorophenyl)-5-methyl-1,3-thiazol-2-yl]imino}piperidin-1-yl]ethanone]	–
4.02	4.03	4.03	CC(=O)N1CCCCC1=Nc1nc(-c2cccc(Cl)c2Cl)cs1 [compound 36, 1-[(2E/Z)-2-{[4-(2,3-dichlorophenyl)-1,3-thiazol-2-yl]imino}piperidin-1-yl]ethanone]	–
–	–	2**	Cc1cccc(-c2ccccc2-c2csc(N=C3CCCCN3)n2)c1 [compound 65, 4-(3′-methylbiphenyl-2-yl)-N-[(2E/Z)-piperidin-2-ylidene]-1,3-thiazole-2-amine]	–
3.55	–	1.97	FC(F)(F)c1cccc(-c2csc(N=C3CCCCN3)n2)c1 [compound 45, N-[(2E/Z)-piperidin-2-ylidene]-4-[3-(trifluoromethyl)phenyl]-1,3-thiazole-2-amine]	–
3.78	1.8	–	Fc1cccc(F)c1Oc1ccccc1-c1csc(N=C2CCCCN2)n1 [compound 76, 4-[2-(2,6-difluorophenoxy)phenyl]-N-[(2E/Z)-piperidin-2-ylidene]-1,3-thiazole-2-amine]	–
3.62	3.63	3.63	CC(=O)N1CCCCC1=Nc1nc(-c2cc(F)cc(F)c2)cs1 [compound 40, 1-[(2E/Z)-2-{[4-(3,5-difluoro-phenyl)-1,3-thiazol-2-yl]imino}piperidin-1-yl]ethanone]	–
2.48	–	2.52	Cc1ccc(Oc2ccccc2-c2csc(N=C3CCCN3)n2)c(C)c1 [compound 95, 4-[2-(2,4-dimethylphenoxy)phenyl]-N-[(2E/Z)-pyrrolidin-2-ylidene]-1,3-thiazole-2-amine]	–
–	–	1.42**	Clc1cccc(Cl)c1-c1csc(N=C2CCCCN2)n1 [compound 51, 4-(2,6-dichlorophenyl)-N-[(2E/Z)-piperidin-2-ylidene]-1,3-thiazole-2-amine]	–

More lines, now with the values behind:

SMILES	log P (***) [1]	log P (*) [2]	log P (**) [3]	other results
COc1ccc(-c2cccc(-c3csc(N=C4CCCCN4)n3)c2)cc1 [compound 68, 4-(4′-methoxybiphenyl-3-yl)-N-[(2E/Z)-piperidin-2-ylidene]-1,3-thiazole-2-amine]	3.88	1.85	–	–
c1sc(N=C2CCCCN2)nc1CC1CC1 [compound 72, 4-(cyclopropylmethyl)-N-[(2E/Z)-piperidin-2-ylidene]-1,3-thiazole-2-amine]	2.73	1.07	–	–
Clc1ccc(-c2csc(N=C3CCCCN3)n2)cc1Cl [compound 52, 4-(3,4-dichlorophenyl)-N-[(2E/Z)-piperidin-2-ylidene]-1,3-thiazole-2-amine]	–	–	–	chromatographic logP [4]: 3.93; chromatographic logP [5]: 1.68
Clc1ccc(-c2csc(N=C3CCCCN3)n2)c(Cl)c1 [compound 4, 4-(2,4-dichlorophenyl)-N-[(2E/Z)-piperidin-2-ylidene]-1,3-thiazole-2-amine]	–	–	1.8**	–
Clc1ccc(-c2ccccc2-c2csc(N=C3CCCCN3)n2)cc1Cl [compound 66, 4-(3′,4′-dichloro-biphenyl-2-yl)-N-[(2E/Z)-piperidin-2-ylidene]-1,3-thiazole-2-amine]	–	–	2.2**	–
FC(F)(F)Oc1ccc(-c2csc(N=C3CCCCN3)n2)cc1 [compound 50, N-[(2E/Z)-piperidin-2-ylidene]-4-[4-(trifluoromethoxy)phenyl]-1,3-thiazole-2-amine]	–	–	1.78**	–
Fc1ccc(-c2csc(N=C3CCCCN3)n2)cc1F [compound 18, 4-(3,4-difluorophenyl)-N-[(2E/Z)-piperidin-2-ylidene]-1,3-thiazole-2-amine]	3.12	1.64	1.64	–
FC(F)(F)c1cc(-c2csc(N=C3CCCCN3)n2)cc(C(F)(F)F)c1 [compound 6, 4-[3,5-bis(trifluoromethyl)phenyl]-N-[(2E/Z)-piperidin-2-ylidene]-1,3-thiazole-2-amine]	4.36	–	2.23	–
Fc1ccc(Oc2ccc(-c3csc(N=C4CCCCN4)n3)cc2)c(F)c1 [compound 9, 4-[4-(2,4-difluorophenoxy)phenyl]-N-[(2E/Z)-piperidin-2-ylidene]-1,3-thiazole-2-amine]	3.95	2.12	–	–
CC(=O)N1CCCCC1=Nc1nc(-c2ccc(Cl)cc2Cl)cs1 [compound 35, 1-[(2E/Z)-2-{[4-(2,4-dichlorophenyl)-1,3-thiazol-2-yl]imino}piperidin-1-yl]ethanone]	–	–	–	chromatographic logP (LC-MS, acidic range, pH 2.7, 0.1% aqueous formic acid and acetonitrile, read-out: log P (**)): 4.33; chromatographic logP [4]: 4.33; chromatographic logP [5]: 4.33
Clc1ccc(Oc2ccccc2-c2csc(N=C3CCCCN3)n2)c(Cl)c1 [compound 11, 4-[2-(2,4-dichlorophenoxy)phenyl]N-[(2E/Z)-piperidin-2-ylidene]-1,3-thiazole-2-amine]	4.84	2.42	2.42	–
COc1ccc(-c2ccccc2-c2csc(N=C3CCCCN3)n2)cc1 [compound 67, 4-(4′-methoxybiphenyl-2-yl)-N-[(2E/Z)-piperidin-2-ylidene]-1,3-thiazole-2-amine]	–	–	1.83**	–
